According to patent US7601753B2, “Pyrrolidine melanocortin-specific compounds” (Palatin Technologies, Inc., priority 2001, dated 2009):

What was measured:
hMC4-R = biological target: T1, hMC4-R (Homo sapiens, UniProt P32245); assay: Competitive inhibition binding assay, 125I-NDP-α-MSH, hMC4-R; conditions: 1 μM test compound, 0.4 nM 125I-NDP-α-MSH, hMC4-R membranes, mean of triplicates, results less than 0% reported as 0%; for inhibition at 1 µM: read-out: Inhibition at 1 μM MC4-R
T1 construct: expressed in transfected cells
T1 sequence (P32245 whole entry): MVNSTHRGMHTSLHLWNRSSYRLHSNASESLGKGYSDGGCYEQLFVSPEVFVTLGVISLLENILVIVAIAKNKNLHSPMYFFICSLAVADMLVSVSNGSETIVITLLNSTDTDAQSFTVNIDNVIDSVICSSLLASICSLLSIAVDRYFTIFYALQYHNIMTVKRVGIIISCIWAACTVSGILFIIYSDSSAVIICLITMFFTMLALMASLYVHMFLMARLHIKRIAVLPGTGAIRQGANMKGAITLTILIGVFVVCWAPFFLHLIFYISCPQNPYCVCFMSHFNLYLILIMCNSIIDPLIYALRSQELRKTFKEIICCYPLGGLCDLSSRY
Method: (§1) A competitive inhibition binding assay was conducted using membranes prepared from hMC3-R, hMC4-R, hMC5-R, and B-16 mouse melanoma cells (containing MC1-R) using 0.4 nM ^125I-NDP-α-MSH (New England Nuclear, Boston, Mass., USA) in 50 mM HEPES buffer containing 1 mM MgCl2, 2 mM CaCl2, and 5 mM KCl, at pH 7.2. The assay tube also contained a chosen concentration of the test compound of this invention, typically a 1 μM concentration, for determining its efficacy in inhibiting the binding of ^125I-NDP-α-MSH to its receptor.
(§2) Incubation was for 90 minutes at room temperature, after which the assay mixture was filtered and the membranes washed three times with ice cold buffer. The filter was dried and counted in a gamma counter for remaining radioactivity bound to the membranes. 100% specific binding was defined as the difference in radioactivity (cpm) bound to cell membranes in the absence and presence of 1 μM α-MSH. […] Each assay was conducted in triplicate and the actual mean values are described.

[1] = biological target: T2, MC1-R (B-16 mouse melanoma cells) (Mus musculus, UniProt Q01727); assay: Competitive inhibition binding assay, 125I-NDP-α-MSH, MC1-R; conditions: 1 μM test compound; 0.4 nM 125I-NDP-α-MSH; B-16 mouse melanoma cell membranes; mean of triplicates; results less than 0% reported as 0%
T2 construct: membranes prepared from hMC3-R, hMC4-R, hMC5-R, and B-16 mouse melanoma cells (containing MC1-R); endogenous in cells; host or cells: B-16 mouse melanoma cells (membranes)
T2 sequence (Q01727 whole entry): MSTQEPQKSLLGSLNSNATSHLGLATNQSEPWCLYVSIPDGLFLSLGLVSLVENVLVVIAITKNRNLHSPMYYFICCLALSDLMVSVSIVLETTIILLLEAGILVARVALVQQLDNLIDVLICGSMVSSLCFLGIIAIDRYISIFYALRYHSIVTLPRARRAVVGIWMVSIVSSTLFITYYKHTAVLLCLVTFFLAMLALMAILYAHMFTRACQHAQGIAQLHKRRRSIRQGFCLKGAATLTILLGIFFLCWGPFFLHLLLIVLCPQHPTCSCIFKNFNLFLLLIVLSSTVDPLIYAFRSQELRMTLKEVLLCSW
Method: as §1, §2

hMC3-R = biological target: T3, hMC3-R (Homo sapiens, UniProt P41968); assay: Competitive inhibition binding assay, 125I-NDP-α-MSH, hMC3-R; conditions: 1 μM test compound, 0.4 nM 125I-NDP-α-MSH, hMC3-R membranes, mean of triplicates, results less than 0% reported as 0%; for inhibition at 1 µM: read-out: Inhibition at 1 μM MC3-R
T3 construct: expressed in transfected cells
T3 sequence (P41968 whole entry): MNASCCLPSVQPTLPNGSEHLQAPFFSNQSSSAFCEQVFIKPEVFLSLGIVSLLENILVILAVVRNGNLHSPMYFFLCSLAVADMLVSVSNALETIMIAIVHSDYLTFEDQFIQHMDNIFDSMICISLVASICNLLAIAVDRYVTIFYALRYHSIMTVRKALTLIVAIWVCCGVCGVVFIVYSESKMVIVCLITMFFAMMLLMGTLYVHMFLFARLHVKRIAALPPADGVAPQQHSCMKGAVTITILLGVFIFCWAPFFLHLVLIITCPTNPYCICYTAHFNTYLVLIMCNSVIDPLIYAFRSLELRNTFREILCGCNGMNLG
Method: as §1, §2

hMC5-R = biological target: T4, hMC5-R (Homo sapiens, UniProt P33032); assay: Competitive inhibition binding assay, 125I-NDP-α-MSH, hMC5-R; conditions: 1 μM test compound, 0.4 nM 125I-NDP-α-MSH, hMC5-R membranes, mean of triplicates, results less than 0% reported as 0%; for inhibition at 1 µM: read-out: Inhibition at 1 μM MC5-R
T4 construct: expressed in transfected cells
T4 sequence (P33032 whole entry): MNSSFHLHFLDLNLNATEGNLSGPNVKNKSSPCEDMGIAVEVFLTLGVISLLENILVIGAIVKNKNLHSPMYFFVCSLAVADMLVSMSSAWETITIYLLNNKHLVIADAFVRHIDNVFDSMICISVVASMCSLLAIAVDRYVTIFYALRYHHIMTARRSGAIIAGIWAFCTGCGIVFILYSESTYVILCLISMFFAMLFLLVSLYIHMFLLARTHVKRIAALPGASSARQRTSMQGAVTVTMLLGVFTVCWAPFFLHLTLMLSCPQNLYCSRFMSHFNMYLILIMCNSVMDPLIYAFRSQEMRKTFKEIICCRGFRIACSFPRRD
Method: as §1, §2

Structure (SMILES) | inhibition at 1 µM (hMC4-R) | inhibition at 1 µM [1] | inhibition at 1 µM (hMC3-R) | inhibition at 1 µM (hMC5-R) | Inhibition at 1 μM MC4-R (hMC4-R) | Inhibition at 1 μM MC1-R [1] | Inhibition at 1 μM MC3-R (hMC3-R) | Inhibition at 1 μM MC5-R (hMC5-R)
[2H]N[C@@H](Cc1cnc[nH]1)C(=O)N[C@@H](Cc1ccccc1)C(=O)N1C[C@H](OCc2ccccc2)C[C@H]1C(=O)NCCCCCCN [Example 27] | 2% | 36% | 0% | 8% | – | – | – | –
CCCCCCC(=O)N[C@@H](Cc1cnc[nH]1)C(=O)N[C@H](Cc1ccccc1)C(=O)N1C[C@H](OCc2ccccc2)C[C@H]1C(=O)NCCCNC(=N)N [Example 30, Heptanoyl-His-D-Phe-Hyp(Bzl)-NH(CH2)3—NH—C(═NH)—NH2] | – | – | – | – | 1% | 92% | 7% | 1%
[2H]N[C@@H](Cc1ccccc1)C(=O)N1C2CC[C@H](COc3ccccc3)N2C(=O)[C@@H]1CCCCN (stereo partly drawn) [Example 36] | – | – | – | – | 8% | 0% | 41% | 0%
[2H]N[C@@H](Cc1ccccc1)C(=O)N1C2CC[C@H](COc3ccc4ccccc4c3)N2C(=O)[C@@H]1CCCCN (stereo partly drawn) [Example 38] | – | – | – | – | 13% | 0% | 0% | 1%
[2H]N[C@@H](Cc1cnc[nH]1)C(=O)N[C@@H](Cc1ccccc1)C(=O)N1C2CC[C@H](COc3ccc4ccccc4c3)N2C(=O)[C@@H]1CCCCN (stereo partly drawn) [Example 42] | – | – | – | – | 10% | 18% | 0% | 0%
[2H]N1CCC[C@@H]1C(=O)N[C@@H](Cc1ccccc1)C(=O)N1C[C@H](OCc2ccccc2)C[C@H]1C(=O)NCCCN [Example 44] | 11% | 13% | 0% | 0% | – | – | – | –

More lines, now with the values ahead:

inhibition at 1 µM (hMC4-R) | inhibition at 1 µM [1] | inhibition at 1 µM (hMC3-R) | inhibition at 1 µM (hMC5-R) | Inhibition at 1 μM MC4-R (hMC4-R) | Inhibition at 1 μM MC1-R [1] | Inhibition at 1 μM MC3-R (hMC3-R) | Inhibition at 1 μM MC5-R (hMC5-R) | Structure (SMILES)
1% | 42% | 0% | 7% | – | – | – | – | [2H]N[C@@H](Cc1cnc[nH]1)C(=O)N[C@@H](Cc1ccccc1)C(=O)N1C[C@H](OCc2ccccc2)C[C@H]1C(=O)NCCCCCN [Example 26]
0% | 0% | 0% | 5% | – | – | – | – | [2H]N[C@@H](Cc1cnc[nH]1)C(=O)N[C@@H](Cc1ccccc1)C(=O)N1C[C@H](OCc2ccccc2)C[C@H]1C(N)=O [Example 28, His-D-Phe-Hyp(Bzl)-NH2]
6% | 0% | 0% | 4% | – | – | – | – | [2H]N[C@@H](Cc1cnc[nH]1)C(=O)N[C@@H](Cc1ccccc1)C(=O)N1C[C@H](OCc2ccccc2)C[C@H]1C(=O)NCCCNC(=N)N [Example 29]
